Measured values taken from patent US11154563B2, “Immunoproteasome inhibitors” (Principia Biopharma Inc., priority 2017, dated 2021).

Legend:
[1] = target: immunoproteasome LMP7/B5i subunit (Homo sapiens, UniProt P20618+P28062); test: Caliper-based proteasome enzymatic activity assay, LMP7; type: biochemical; conditions: human recombinant immunoproteasome 0.3 nM, FAM-peptide substrate 1 μM, 3 h at rt
Procedure, shortened: (§1)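 Recombinant human immunoproteasome or constitutive proteasome (0.3 nM) with 1 μM FAM-peptide in 20 mM Hepes pH 7.4, 0.015% SDS, 0.01% BSA; LMP7/β5c ran 3 h at rt and were stopped with 5 uM carfilzomib, LMP2 ran 2 h and was stopped with 6.7 uM ixazomib. Cleaved product quantified by microfluidic separation; IC50 from percent inhibition.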

[2] = target: constitutive proteasome β5c unit (Homo sapiens, UniProt P20618+P28074); test: Caliper-based proteasome enzymatic activity assay, β5c; type: biochemical; conditions: human recombinant constitutive proteasome 0.3 nM, FAM-peptide substrate 1 μM, 3 h at rt; read-out: β5c subunit IC50
Procedure, shortened: as §1

Compound | IC50 [1] [nM] | IC50 [2] [nM]
COC(=O)N1CCN(C(C)(C)C=C(C#N)C(=O)N2CCCC[C@@H]2COC(=O)N[C@@H](Cc2ccccc2)B(O)O)CC1 [Example 125, ((R)-1-(((((R)-1-(2-cyano-4-(4-(methoxycarbonyl)piperazin-1-yl)-4-methylpent-2-enoyl)piperidin-2-yl)methoxy)carbonyl)amino)-2-phenylethyl)boronic acid] | 1.6 | 2860
COc1cccc(C[C@H](NC(=O)OC[C@H]2CCCCN2C(=O)C(C#N)=CC(C)(C)N2CCC(F)(F)C2)B(O)O)c1 [Example 96] | 2.7 | > 5000
CC(C)(C=C(C#N)C(=O)N1C[C@@H]2C[C@@H]2[C@@H]1COC(=O)N[C@@H](Cc1ccc(C(F)(F)F)cc1)B(O)O)N1CCOCC1 [Example 114] | 2.3 | 2540
C=CC(=O)N1CCOC[C@@H]1COC(=O)N[C@@H](Cc1coc2ccccc12)B(O)O [Example 93, ((R)-1-(((((R)-4-acryloylmorpholin-3-yl)methoxy)carbonyl)amino)-2-(benzofuran-3-yl)ethyl)boronic acid] | 3 | 165
CN1CCN(C(C)(C)C=C(C#N)C(=O)N2CCC[C@@H]2COC(=O)N[C@@H](Cc2coc3ccccc23)B(O)O)CC1 [Example 55, ((R)-2-(benzofuran-3-yl)-1-(((((R)-1-(2-cyano-4-methyl-4-(4-methylpiperazin-1-yl)pent-2-enoyl)pyrrolidin-2-yl)methoxy)carbonyl)amino)ethyl)boronic acid] | 2.5 | 225
CC(C)(C=C(C#N)C(=O)N1CCCC[C@@H]1COC(=O)N[C@@H](Cc1ccc(S(C)(=O)=O)cc1)B(O)O)N1CCC(F)(F)C1 [Example 124, ((R)-1-(((((R)-1-(2-cyano-4-(3,3-difluoropyrrolidin-1-yl)-4-methylpent-2-enoyl)piperidin-2-yl)methoxy)carbonyl)amino)-2-(4-(methylsulfonyl)phenyl)ethyl)boronic acid] | 2.2 | 550
C=CC(=O)N1C[C@@H](F)C[C@@H]1COC(=O)N[C@@H](Cc1ccccc1)B(O)O [Example 100, ((R)-1-(((((2R,4S)-1-acryloyl-4-fluoropyrrolidin-2-yl)methoxy)carbonyl)amino)-2-phenylethyl)boronic acid] | 21 | 530
CC(C)(C=C(C#N)C(=O)N1CCCCC[C@H]1COC(=O)N[C@@H](Cc1coc2ccccc12)B(O)O)N1CCC(F)(F)C1 [Example 68, ((R)-2-(benzofuran-3-yl)-1-(((((S)-1-(2-cyano-4-(3,3-difluoropyrrolidin-1-yl)-4-methylpent-2-enoyl)azepan-2-yl)methoxy)carbonyl)amino)ethyl)boronic acid] | 2.5 | 447
CC(C)(C)/C=C(\C#N)C(=O)N1CC(F)(F)C[C@@H]1COC(=O)N[C@@H](Cc1ccccc1)B(O)O [Example 61, ((R)-1-(((((R)-1-((E)-2-cyano-4,4-dimethylpent-2-enoyl)-4,4-difluoropyrrolidin-2-yl)methoxy)carbonyl)amino)-2-phenylethyl)boronic acid] | 1.4 | 1490
CC(C)(C=C(C#N)C(=O)N1CCC[C@]1(C)COC(=O)N[C@@H](Cc1ccc(F)cc1)B(O)O)N1CCC(F)(F)C1 [Example 120, ((R)-1-(((((R)-1-(2-cyano-4-(3,3-difluoropyrrolidin-1-yl)-4-methylpent-2-enoyl)-2-methylpyrrolidin-2-yl)methoxy)carbonyl)amino)-2-(4-fluorophenyl)ethyl)boronic acid] | 530 | > 5000
CC(C)(C=C(C#N)C(=O)N1CCCC[C@@H]1COC(=O)N[C@@H](Cc1ccccc1)B(O)O)N1CCN(C2COC2)CC1 [Example 126, ((R)-1-(((((R)-1-(2-cyano-4-methyl-4-(4-(oxetan-3-yl)piperazin-1-yl)pent-2-enoyl)piperidin-2-yl)methoxy)carbonyl)amino)-2-phenylethyl)boronic acid] | 21 | > 5000
CC(C)(C=C(C#N)C(=O)N1CCC[C@@H]1COC(=O)N[C@@H](Cc1coc2ccccc12)B(O)O)N1CCN(C2COC2)CC1 [Example 44, ((R)-2-(benzofuran-3-yl)-1-(((((R)-1-(2-cyano-4-methyl-4-(4-(oxetan-3-yl)piperazin-1-yl)pent-2-enoyl)pyrrolidin-2-yl)methoxy)carbonyl)amino)ethyl)boronic acid] | 2.3 | 396
C=C(F)C(=O)N1CCC[C@]1(C)COC(=O)N[C@@H](Cc1ccc(F)cc1)B(O)O [Example 121, ((R)-1-(((((R)-1-(2-fluoroacryloyl)-2-methylpyrrolidin-2-yl)methoxy)carbonyl)amino)-2-(4-fluorophenyl)ethyl)boronic acid] | 1.9 | 1750

More lines, in order of falling IC50 [1], values ahead:

IC50 [1] [nM] | IC50 [2] [nM] | Compound
550 | > 5000 | CC(C)(C=C(C#N)C(=O)N1C[C@@H]2C[C@@H]2[C@@H]1COC(=O)N[C@@H](Cc1ccc(F)cc1)B(O)O)N1CCOCC1 [Example 123, ((R)-1-(((((1S,2R,5R)-3-(2-cyano-4-methyl-4-morpholinopent-2-enoyl)-3-azabicyclo[3.1.0]hexan-2-yl)methoxy)carbonyl)amino)-2-(4-fluorophenyl)ethyl)boronic acid]
9.8 | > 5000 | CC(C)(C)C=C(C#N)C(=O)N1CCCC[C@@H]1COC(=O)N[C@@H](CCc1ccccc1)B(O)O [Example 50, ((R)-1-(((((R)-1-(2-cyano-4,4-dimethylpent-2-enoyl)piperidin-2-yl)methoxy)carbonyl)amino)-3-phenylpropyl)boronic acid]
7.1 | 263 | CC#CC(=O)N1C[C@@H]2C[C@@H]2[C@@H]1COC(=O)N[C@@H](Cc1coc2ccccc12)B(O)O [Example 88, ((R)-2-(benzofuran-3-yl)-1-(((((1S,2R,5R)-3-(but-2-ynoyl)-3-azabicyclo[3.1.0]hexan-2-yl)methoxy)carbonyl)amino)ethyl)boronic acid]
5.2 | 2240 | CC(C)(C=C(C#N)C(=O)N1CCCC[C@@H]1COC(=O)N[C@@H](Cc1cccc2ccccc12)B(O)O)N1CCC(F)(F)C1 [Example 106, ((R)-1-(((((R)-1-(2-cyano-4-(3,3-difluoropyrrolidin-1-yl)-4-methylpent-2-enoyl)piperidin-2-yl)methoxy)carbonyl)amino)-2-(naphthalen-1-yl)ethyl)boronic acid]
1.6 | 205 | CC(C)(C=C(C#N)C(=O)N1CCCC[C@@H]1COC(=O)N[C@@H](Cc1coc2ccccc12)B(O)O)N1CCCC(F)(F)C1 [Example 62, ((R)-2-(benzofuran-3-yl)-1-(((((R)-1-(2-cyano-4-(3,3-difluoropiperidin-1-yl)-4-methylpent-2-enoyl)piperidin-2-yl)methoxy)carbonyl)amino)ethyl)boronic acid]
1.4 | > 5000 | CC(C)(C=C(C#N)C(=O)N1C[C@@H]2C[C@@H]2[C@@H]1COC(=O)N[C@@H](CCc1ccccc1)B(O)O)N1CCC(F)(F)C1 [Example 104, ((R)-1-(((((1S,2R,5R)-3-(2-cyano-4-(3,3-difluoropyrrolidin-1-yl)-4-methylpent-2-enoyl)-3-azabicyclo[3.1.0]hexan-2-yl)methoxy)carbonyl)amino)-3-phenylpropyl)boronic acid]
